According to ChEMBL document CHEMBL1201862, “PubChem BioAssay data set” (2004):
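Grown in 96-well plates, cells were treated for 48 hours with each compound at five concentrations. Insufficient inhibition: endpoint recorded as highest concentration tested. GI50 is the concentration that inhibits growth by half.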 The source made the active and inactive calls. Rule as the data show it: active = GI50 up to about 1.1 µM and inactive = higher.

Assays:
Assay in all cases: NCI anticancer screen, dose series, 48 h
EKVX = test system: EKVX
HCT-116 = test system: HCT-116
HOP-62 = test system: HOP-62
HOP-92 = test system: HOP-92
IGROV-1 = test system: IGROV-1
K562 = test system: K562
M14 = test system: M14
MDA-MB-231 = test system: MDA-MB-231
Malme-3M = test system: Malme-3M
NCI-H226 = test system: NCI-H226
OVCAR-3 = test system: OVCAR-3
RPMI-8226 = test system: RPMI-8226
SK-MEL-5 = test system: SK-MEL-5
TK-10 = test system: TK-10
UACC-62 = test system: UACC-62
HCC 2998 = test system: HCC 2998

Measured: GI50

COC(=O)C[C@@H]1C(C)(C)[C@@H]2O[C@@]34C[C@@H]2C(=O)[C@]1(C)[C@H]3CC[C@@]1(C)[C@H](c2ccoc2)OC(=O)C[C@]14O
inactive: EKVX > 100 µM | HCT-116 > 100 µM | HOP-62 > 100 µM | HOP-92 > 100 µM | IGROV-1 > 100 µM | K562 > 100 µM | M14 > 100 µM | MDA-MB-231 > 100 µM | Malme-3M > 100 µM | NCI-H226 > 100 µM | OVCAR-3 > 100 µM | RPMI-8226 > 100 µM | SK-MEL-5 > 100 µM | TK-10 > 100 µM | UACC-62 > 100 µM

COC(=O)CCCC(=O)NC1=C(Nc2ccccc2)C(=O)c2ccccc2C1=O
inactive: EKVX 24.4 µM | HCC 2998 14.7 µM | HCT-116 16.6 µM | HOP-92 21.8 µM | IGROV-1 16 µM | K562 19.2 µM | M14 16.1 µM | MDA-MB-231 19.1 µM | Malme-3M 3.56 µM | OVCAR-3 12.6 µM | RPMI-8226 17.6 µM | TK-10 26.8 µM | UACC-62 3.27 µM

NCCCN(CCCCN(CCCN)CCCc1ccccc1)CCCc1ccccc1
inactive: EKVX 2.99 µM | HCC 2998 1.62 µM | HCT-116 1.82 µM | HOP-62 9.89 µM | HOP-92 6.97 µM | IGROV-1 2.65 µM | K562 1.77 µM | M14 1.76 µM | MDA-MB-231 2.02 µM | NCI-H226 17.6 µM | OVCAR-3 1.73 µM | RPMI-8226 2.43 µM | SK-MEL-5 1.83 µM | TK-10 12.4 µM | UACC-62 1.74 µM

O=C1NCN(c2ccccc2)C12CCN(CCc1ccc3[nH]c(=S)[nH]c3c1)CC2
inactive: EKVX 88.5 µM | HCT-116 43 µM | HOP-62 > 100 µM | HOP-92 13.9 µM | IGROV-1 37.6 µM | M14 19.6 µM | MDA-MB-231 19.5 µM | Malme-3M 15.6 µM | OVCAR-3 48 µM | RPMI-8226 22.3 µM | SK-MEL-5 17.5 µM | TK-10 24.7 µM | UACC-62 64.9 µM

Clc1cc(OC2C3CC4CC(C3)CC2C4)nc(Cl)n1 (stereo not drawn)
inactive: EKVX 7.29 µM | HCC 2998 1.96 µM | HCT-116 14.3 µM | HOP-62 25.9 µM | HOP-92 1.64 µM | IGROV-1 10.6 µM | K562 4.62 µM | M14 16.2 µM | MDA-MB-231 13.7 µM | Malme-3M 14.9 µM | OVCAR-3 18.1 µM | RPMI-8226 21 µM | SK-MEL-5 17.9 µM | TK-10 30.7 µM | UACC-62 12.2 µM

CC(=O)/N=C1\NC(=O)/C(=C/c2ccccc2Cl)N1C
inactive: EKVX 26.4 µM | HCC 2998 > 100 µM | HCT-116 > 100 µM | HOP-62 > 100 µM | HOP-92 > 100 µM | IGROV-1 > 100 µM | M14 > 100 µM | MDA-MB-231 > 100 µM | NCI-H226 > 100 µM | OVCAR-3 > 100 µM | SK-MEL-5 > 100 µM | TK-10 > 100 µM | UACC-62 > 100 µM

COc1ccc(/N=N/c2ccc3oc(=O)c(C(=O)Nc4ccc(Cl)cc4)cc3c2)cc1
inactive: EKVX 6.15 µM | HCC 2998 > 10 µM | HOP-62 > 10 µM | HOP-92 7.83 µM | IGROV-1 3.52 µM | M14 > 10 µM | MDA-MB-231 6.25 µM | Malme-3M > 10 µM | NCI-H226 > 10 µM | OVCAR-3 7.28 µM | RPMI-8226 > 10 µM | SK-MEL-5 > 10 µM | TK-10 > 10 µM

OCCc1ccsc1-c1sc(-c2cc(CCO)c(-c3sccc3CCO)s2)cc1CCO
inactive: EKVX 17.1 µM | HCC 2998 12.5 µM | HCT-116 16.6 µM | HOP-62 14.5 µM | HOP-92 11.6 µM | IGROV-1 15.7 µM | K562 7.94 µM | M14 11.3 µM | MDA-MB-231 12.2 µM | Malme-3M 11.1 µM | OVCAR-3 18.1 µM | RPMI-8226 5.05 µM | SK-MEL-5 15.6 µM | TK-10 19.5 µM | UACC-62 11.6 µM

CCOc1ccc(-n2nnc3c(N)nc(N)nc32)cc1
inactive: EKVX > 100 µM | HCT-116 > 100 µM | HOP-62 > 100 µM | HOP-92 > 100 µM | IGROV-1 > 100 µM | K562 > 100 µM | M14 > 100 µM | MDA-MB-231 > 100 µM | Malme-3M > 100 µM | NCI-H226 > 100 µM | OVCAR-3 > 100 µM | RPMI-8226 > 100 µM | SK-MEL-5 > 100 µM | TK-10 > 100 µM | UACC-62 > 100 µM

COc1cc(Cc2cnc(N)nc2N)cc(OC)c1OCCCNc1ccc([N+](=O)[O-])cc1
inactive: EKVX 15.3 µM | HCC 2998 14.5 µM | HCT-116 12.6 µM | HOP-62 13.6 µM | HOP-92 14.3 µM | IGROV-1 12.5 µM | K562 8.69 µM | M14 6.35 µM | MDA-MB-231 12.9 µM | Malme-3M 12.7 µM | NCI-H226 13.4 µM | OVCAR-3 14.5 µM | SK-MEL-5 5.79 µM | TK-10 14.3 µM | UACC-62 12.9 µM

O=C(N/N=C/c1ccc([N+](=O)[O-])cc1)c1cccc2nc3ccccc3nc12
inactive: EKVX > 100 µM | HCT-116 > 100 µM | HOP-62 1.74 µM | HOP-92 > 51.9 µM | IGROV-1 > 100 µM | K562 > 70.3 µM | M14 > 100 µM | MDA-MB-231 > 70.3 µM | Malme-3M > 100 µM | NCI-H226 > 100 µM | OVCAR-3 > 100 µM | RPMI-8226 > 100 µM | SK-MEL-5 2.07 µM | TK-10 > 38 µM | UACC-62 > 100 µM

O=c1oc(-c2ccccc2)c(-c2ccccc2)n1-c1ccc(Br)cc1
inactive: EKVX 54.1 µM | HCT-116 49.7 µM | HOP-62 33.2 µM | HOP-92 35.4 µM | IGROV-1 29.6 µM | M14 > 100 µM | MDA-MB-231 27.7 µM | NCI-H226 > 100 µM | OVCAR-3 47.5 µM | SK-MEL-5 76.6 µM | TK-10 31.8 µM | UACC-62 73.8 µM

O=S(=O)(O)c1ccc2c(/N=N\c3ccc(F)cc3)c(O)c(S(=O)(=O)O)cc2c1
inactive: EKVX > 100 µM | HCT-116 > 100 µM | HOP-62 > 100 µM | HOP-92 > 100 µM | IGROV-1 > 100 µM | K562 > 100 µM | M14 > 100 µM | MDA-MB-231 > 100 µM | Malme-3M > 100 µM | OVCAR-3 > 100 µM | RPMI-8226 > 100 µM | SK-MEL-5 > 100 µM | TK-10 > 100 µM | UACC-62 > 100 µM

Cc1cc(S(=O)(=O)Nc2nc(N)n(-c3ccccn3)n2)c(S)cc1Cl
inactive: EKVX > 100 µM | HCC 2998 > 100 µM | HCT-116 > 100 µM | HOP-62 > 100 µM | IGROV-1 > 100 µM | K562 > 100 µM | M14 > 100 µM | MDA-MB-231 > 100 µM | Malme-3M > 100 µM | NCI-H226 > 100 µM | OVCAR-3 > 100 µM | RPMI-8226 > 100 µM | SK-MEL-5 > 100 µM | TK-10 > 100 µM | UACC-62 > 100 µM
